SMILES strings stand for the structures.

T1 sequence (Q9Y5N1 with tags, fused parts or gaps E19D): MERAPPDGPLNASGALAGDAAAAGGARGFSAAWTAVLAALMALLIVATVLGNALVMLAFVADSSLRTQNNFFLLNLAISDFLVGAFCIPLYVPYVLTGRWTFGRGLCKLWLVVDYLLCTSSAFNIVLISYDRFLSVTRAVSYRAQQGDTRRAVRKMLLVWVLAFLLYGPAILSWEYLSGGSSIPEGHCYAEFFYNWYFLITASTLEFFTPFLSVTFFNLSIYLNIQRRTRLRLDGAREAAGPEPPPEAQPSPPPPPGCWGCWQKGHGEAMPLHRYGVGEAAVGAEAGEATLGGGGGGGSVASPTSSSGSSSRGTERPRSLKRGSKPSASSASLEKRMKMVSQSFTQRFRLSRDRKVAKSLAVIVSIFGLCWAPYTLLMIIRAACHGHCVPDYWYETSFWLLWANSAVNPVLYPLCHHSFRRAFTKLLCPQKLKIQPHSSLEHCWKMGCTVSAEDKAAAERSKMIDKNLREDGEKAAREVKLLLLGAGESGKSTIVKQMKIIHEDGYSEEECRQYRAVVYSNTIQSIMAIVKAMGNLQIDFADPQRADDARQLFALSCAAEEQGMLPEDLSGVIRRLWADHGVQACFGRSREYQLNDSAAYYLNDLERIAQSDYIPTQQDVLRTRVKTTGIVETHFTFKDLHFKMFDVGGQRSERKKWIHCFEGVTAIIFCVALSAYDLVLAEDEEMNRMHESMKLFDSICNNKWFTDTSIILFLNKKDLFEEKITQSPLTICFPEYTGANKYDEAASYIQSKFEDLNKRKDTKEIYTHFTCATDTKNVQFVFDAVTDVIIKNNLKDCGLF

The first assay concerns the target T1, chimeric human H3 receptor (Homo sapiens, UniProt Q9Y5N1, E19D).
T1 construct: made in house; host or cells: Sf9 insect cells (baculovirus infection); P2 membrane preparation
As to the kind of experiment: Chimeric human H3 receptor screening GTP binding assay (inhibition of histamine-stimulated GTP-gamma35S binding, Example 8). The class given is biochemical. To be noted: 1 h; "+" in Ki of Table II; assay of Example 8; read-out: percent inhibition of agonist-induced GTP-gammaS binding to H3. The method, boiled down:
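Data are percent inhibition of the 1 μM histamine-stimulated GTP-gamma35S (125 pM) binding, after non-specific binding (10 uM GTP-gammaS) is subtracted. Test compound at 4 μM. Incubation was 60 min at room temperature with Sf9 membranes bearing receptor plus G-protein subunits, buffer pH 7.4 with 10 μM GDP, and filtration read-out.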
For `COc1cccc(OCC(=O)N2CCN(CC(=O)N3CCN(C4CCC4)CC3)CC2)c1` [Compound 551, 1-cyclobutyl-4-({4-[(3-methoxyphenoxy)acetyl]piperazin-1-yl}acetyl)piperazine], the inhibition at 4 µM is over 90%.

`COc1cccc(CC(=O)N2CCN(CC(=O)N3CCN(C4CCC4)CC3)CC2)c1` [Compound 552, 1-cyclobutyl-4-({4-[(3-methoxyphenyl)acetyl]piperazin-1-yl}acetyl)piperazine]: the inhibition at 4 µM was over 90%.

As to `Cc1ccsc1C(=O)N1CCN(CC(=O)N2CCN(C3CCC3)CC2)CC1` [Compound 553, 1-cyclobutyl-4-({4-[(3-methyl-2-thienyl)carbonyl]piperazin-1-yl}acetyl)piperazine], the inhibition at 4 µM is over 90%.

For `Cc1cccc(OCC(=O)N2CCN(CC(=O)N3CCN(C4CCC4)CC3)CC2)c1` [Compound 554, 1-cyclobutyl-4-({4-[(3-methylphenoxy)acetyl]piperazin-1-yl}acetyl)piperazine], the inhibition at 4 µM was over 90%.

Regarding `Cc1cccc(CC(=O)N2CCN(CC(=O)N3CCN(C4CCC4)CC3)CC2)c1` [Compound 555, 1-cyclobutyl-4-({4-[(3-methylphenyl)acetyl]piperazin-1-yl}acetyl)piperazine], the inhibition at 4 µM was over 90%.

Regarding `O=C(Cc1cccc(Oc2ccccc2)c1)N1CCN(CC(=O)N2CCN(C3CCC3)CC2)CC1` [Compound 556, 1-cyclobutyl-4-({4-[(3-phenoxyphenyl)acetyl]piperazin-1-yl}acetyl)piperazine], the inhibition at 4 µM is over 90%.

`CCOc1ccc(CC(=O)N2CCN(CC(=O)N3CCN(C4CCC4)CC3)CC2)cc1OC` [Compound 557, 1-cyclobutyl-4-({4-[(4-ethoxy-3-methoxyphenyl)acetyl]piperazin-1-yl}acetyl)piperazine]: the inhibition at 4 µM was over 90%.

Turning to `O=C(COc1ccc(F)cc1)N1CCN(CC(=O)N2CCN(C3CCC3)CC2)CC1` [Compound 558, 1-cyclobutyl-4-({4-[(4-fluorophenoxy)acetyl]piperazin-1-yl}acetyl)piperazine], the inhibition at 4 µM was over 90%.

For `O=C(Cc1ccc(F)cc1)N1CCN(CC(=O)N2CCN(C3CCC3)CC2)CC1` [Compound 559, 1-cyclobutyl-4-({4-[(4-fluorophenyl)acetyl]piperazin-1-yl}acetyl)piperazine], the inhibition at 4 µM was over 90%.

`CC(C)c1ccc(CC(=O)N2CCN(CC(=O)N3CCN(C4CCC4)CC3)CC2)cc1` [Compound 560, 1-cyclobutyl-4-({4-[(4-isopropylphenyl)acetyl]piperazin-1-yl}acetyl)piperazine]: the inhibition at 4 µM was over 90%.

In the case of `COc1cscc1C(=O)N1CCN(CC(=O)N2CCN(C3CCC3)CC2)CC1` [Compound 561, 1-cyclobutyl-4-({4-[(4-methoxy-3-thienyl)carbonyl]piperazin-1-yl}acetyl)piperazine], the inhibition at 4 µM is over 90%.

`COc1ccc(OCC(=O)N2CCN(CC(=O)N3CCN(C4CCC4)CC3)CC2)cc1` [Compound 562, 1-cyclobutyl-4-({4-[(4-methoxyphenoxy)acetyl]piperazin-1-yl}acetyl)piperazine]: the inhibition at 4 µM was over 90%.

With `COc1ccc(CC(=O)N2CCN(CC(=O)N3CCN(C4CCC4)CC3)CC2)cc1` [Compound 563, 1-cyclobutyl-4-({4-[(4-methoxyphenyl)acetyl]piperazin-1-yl}acetyl)piperazine], the inhibition at 4 µM was over 90%.

With `Cc1nnsc1C(=O)N1CCN(CC(=O)N2CCN(C3CCC3)CC2)CC1` [Compound 564, 1-cyclobutyl-4-({4-[(4-methyl-1,2,3-thiadiazol-5-yl)carbonyl]piperazin-1-yl}acetyl)piperazine], the inhibition at 4 µM is over 90%.

Consider `Cc1ccc(C(C(=O)N2CCN(CC(=O)N3CCN(C4CCC4)CC3)CC2)c2ccccc2)cc1` (stereo not shown) [Compound 565, 1-cyclobutyl-4-({4-[(4-methylphenyl)(phenyl)acetyl]piperazin-1-yl}acetyl)piperazine], for which the inhibition at 4 µM is over 90%.

On to `Cc1ccc(CC(=O)N2CCN(CC(=O)N3CCN(C4CCC4)CC3)CC2)cc1` [Compound 566, 1-cyclobutyl-4-({4-[(4-methylphenyl)acetyl]piperazin-1-yl}acetyl)piperazine], for which the inhibition at 4 µM is over 90%.

As to `O=C(Cc1ccc(Oc2ccccc2)cc1)N1CCN(CC(=O)N2CCN(C3CCC3)CC2)CC1` [Compound 567, 1-cyclobutyl-4-({4-[(4-phenoxyphenyl)acetyl]piperazin-1-yl}acetyl)piperazine], the inhibition at 4 µM is over 90%.

As for `CCc1ccc(C(=O)N2CCN(CC(=O)N3CCN(C4CCC4)CC3)CC2)s1` [Compound 568, 1-cyclobutyl-4-({4-[(5-ethyl-2-thienyl)carbonyl]piperazin-1-yl}acetyl)piperazine], the inhibition at 4 µM was over 90%.

As to `Cc1c(C(=O)N2CCN(CC(=O)N3CCN(C4CCC4)CC3)CC2)cnn1-c1ccccc1` [Compound 569, 1-cyclobutyl-4-({4-[(5-methyl-1-phenyl-1H-pyrazol-4-yl)carbonyl]piperazin-1-yl}acetyl)piperazine], the inhibition at 4 µM was over 90%.

`Cc1ccc(C(=O)N2CCN(CC(=O)N3CCN(C4CCC4)CC3)CC2)s1` [Compound 570, 1-cyclobutyl-4-({4-[(5-methyl-2-thienyl)carbonyl]piperazin-1-yl}acetyl)piperazine]: the inhibition at 4 µM is over 90%.

Regarding `CC(Oc1ccc(Cl)cc1Cl)C(=O)N1CCN(CC(=O)N2CCN(C3CCC3)CC2)CC1` (stereo not shown) [Compound 572, 1-cyclobutyl-4-({4-[2-(2,4-dichlorophenoxy)propanoyl]piperazin-1-yl}acetyl)piperazine], the inhibition at 4 µM was over 90%.

The assay is the same for the next values; noted with them: 1 h; Table II, "+" in the column headed Ki; assay of Example 8; read-out: percent inhibition of agonist-induced GTP-gammaS binding to H3.
Regarding `O=C(CN1CCN(C(=O)c2ccccc2CCc2ccccc2)CC1)N1CCN(C2CCC2)CC1` [Compound 574, 1-cyclobutyl-4-({4-[2-(2-phenylethyl)benzoyl]piperazin-1-yl}acetyl)piperazine], the inhibition at 4 µM is over 90%.

In the case of `CCC(C(=O)N1CCN(CC(=O)N2CCN(C3CCC3)CC2)CC1)c1ccc(OC)cc1` (stereo not shown) [Compound 575, 1-cyclobutyl-4-({4-[2-(4-methoxyphenyl)butanoyl]piperazin-1-yl}acetyl)piperazine], the inhibition at 4 µM was over 90%.

With `Cc1ccc(Oc2ccccc2C(=O)N2CCN(CC(=O)N3CCN(C4CCC4)CC3)CC2)cc1` [Compound 576], the inhibition at 4 µM was over 90%.

Consider `CSc1ccccc1C(=O)N1CCN(CC(=O)N2CCN(C3CCC3)CC2)CC1` [Compound 577, 1-cyclobutyl-4-({4-[2-(methylthio)benzoyl]piperazin-1-yl}acetyl)piperazine], for which the inhibition at 4 µM is over 90%.

Take `O=C(CN1CCN(C(=O)c2ccccc2OC(F)(F)F)CC1)N1CCN(C2CCC2)CC1` [Compound 578, 1-cyclobutyl-4-({4-[2-(trifluoromethoxy)benzoyl]piperazin-1-yl}acetyl)piperazine]: the inhibition at 4 µM is over 90%.

As for `O=C(CN1CCN(C(=O)c2ccccc2C(F)(F)F)CC1)N1CCN(C2CCC2)CC1` [Compound 579, 1-cyclobutyl-4-({4-[2-(trifluoromethyl)benzoyl]piperazin-1-yl}acetyl)piperazine], the inhibition at 4 µM is over 90%.

Consider `O=C(CN1CCN(C(=O)c2c(F)cccc2C(F)(F)F)CC1)N1CCN(C2CCC2)CC1` [Compound 582], for which the inhibition at 4 µM is over 90%.

As to `O=C(CN1CCN(C(=O)c2cccc(C(F)(F)F)c2)CC1)N1CCN(C2CCC2)CC1` [Compound 588, 1-cyclobutyl-4-({4-[3-(trifluoromethyl)benzoyl]piperazin-1-yl}acetyl)piperazine], the inhibition at 4 µM is over 90%.

Regarding `Cc1ccccc1C(C(=O)N1CCN(CC(=O)N2CCN(C3CCC3)CC2)CC1)C(C)C` (stereo not shown) [Compound 591, 1-cyclobutyl-4-({4-[3-methyl-2-(2-methylphenyl)butanoyl]piperazin-1-yl}acetyl)piperazine], the inhibition at 4 µM is over 90%.

`O=C(CN1CCN(C(=O)c2ccc(OC(F)F)cc2)CC1)N1CCN(C2CCC2)CC1` [Compound 596, 1-cyclobutyl-4-({4-[4-(difluoromethoxy)benzoyl]piperazin-1-yl}acetyl)piperazine]: the inhibition at 4 µM is over 90%.

As for `CCSc1ccc(C(=O)N2CCN(CC(=O)N3CCN(C4CCC4)CC3)CC2)cc1` [Compound 598, 1-cyclobutyl-4-({4-[4-(ethylthio)benzoyl]piperazin-1-yl}acetyl)piperazine], the inhibition at 4 µM was over 90%.

Consider `CSc1ccc(C(=O)N2CCN(CC(=O)N3CCN(C4CCC4)CC3)CC2)cc1` [Compound 600, 1-cyclobutyl-4-({4-[4-(methylthio)benzoyl]piperazin-1-yl}acetyl)piperazine], for which the inhibition at 4 µM was over 90%.

As for `O=C(CN1CCN(C(=O)c2ccc(C(F)(F)F)cc2)CC1)N1CCN(C2CCC2)CC1` [Compound 605, 1-cyclobutyl-4-({4-[4-(trifluoromethyl)benzoyl]piperazin-1-yl}acetyl)piperazine], the inhibition at 4 µM is over 90%.

In the case of `O=C(CN1CCN(C(=O)c2ccc(Oc3cc(Cl)cc(Cl)c3)o2)CC1)N1CCN(C2CCC2)CC1` [Compound 608, 1-cyclobutyl-4-({4-[5-(3,5-dichlorophenoxy)-2-furoyl]piperazin-1-yl}acetyl)piperazine], the inhibition at 4 µM was over 90%.

Consider `O=C(CN1CCN(C(=O)C(c2ccccc2)C2CCCCC2)CC1)N1CCN(C2CCC2)CC1` (stereo not shown) [Compound 612, 1-cyclobutyl-4-({4-[cyclohehexyl(phenyl)acetyl]piperazin-1-yl}acetyl)piperazine], for which the inhibition at 4 µM was over 90%.

Regarding `O=C(CN1CCN(C(=O)C(c2ccccc2)C2CCCC2)CC1)N1CCN(C2CCC2)CC1` (stereo not shown) [Compound 613, 1-cyclobutyl-4-({4-[cyclopentyl(phenyl)acetyl]piperazin-1-yl}acetyl)piperazine], the inhibition at 4 µM is over 90%.
